{"source": "patent US20070128217A1", "about": "(priority 2003, published 2007)", "key": {"[1]": {"test_system": "rabbit serum obtained by immunizing a rabbit with the SARS-CoV strain Frankfurt 1", "format": "binding", "design": "Binding of a rabbit serum to linear peptides / Binding of a rabbit serum to looped peptides / Rabbit serum linear peptides / Rabbit serum looped peptides / Binding of a rabbit serum to linear peptides of protein N of SARS-CoV Urbani (Rabbit serum linear peptides) / Binding of a rabbit serum to looped/cyclic peptides of protein N of SARS-CoV Urbani (Rabbit serum looped peptides): unit not given here"}, "[2]": {"test_system": "control sera (pooled serum of ten healthy LUMC hospital workers; commercial negative donor pooled serum from the Dutch bloodbank)", "format": "binding, human", "design": "Binding of Control serum LUMC to linear peptides / Binding of Control serum Blood-bank to linear peptides / Binding of Control serum LUMC to looped peptides / Binding of Control Serum Blood-Bank to Looped peptides / Binding of Control serum LUMC to linear peptides of the protein M of SARS-CoV Urbani / Binding of Control serum Blood-bank to linear peptides of the protein M of SARS-CoV Urbani / Binding of Control serum LUMC to looped peptides of the protein M of SARS-CoV Urbani / Binding of Control Serum Blood-Bank to Looped peptides of the protein M of SARS-CoV Urbani: unit not given here"}, "[3]": {"test_system": "antibodies in sera from SARS patients (sera 1a, 1b, 2, 6, 37, 62, London, SARS-yellow, SARS-green)", "format": "binding, human", "design": "Binding of serum 6 to linear peptides of protein X1 of SARS-CoV Urbani / Binding of serum 37 to linear peptides of protein X1 of SARS-CoV Urbani / Binding of serum 6 to looped/cyclic peptide (PEPSCAN-ELISA) / Binding of serum 37 to looped/cyclic peptide (PEPSCAN-ELISA) / Binding of serum 37 to looped/cyclic peptides of protein X1 of SARS-CoV Urbani / Binding of serum 6 to linear peptides of protein X2 / Binding of serum 37 to linear peptides of protein X2 / Binding of serum 37 to looped/cyclic peptides of protein X2 of SARS-CoV Urbani / Binding of serum 6 to linear peptides of protein M of SARS-CoV Urbani / Binding of serum 37 to linear peptides of protein M of SARS-CoV Urbani / Binding of serum 6 to looped/cyclic peptides of protein M of SARS-CoV Urbani / Binding of serum 37 to looped/cyclic peptides of protein M of SARS-CoV Urbani / Binding of serum 6 to linear peptides of protein X3 of SARS-CoV Urbani / Binding of serum 37 to linear peptides of protein X3 of SARS-CoV Urbani / Binding of serum 37 to looped/cyclic peptides of protein X3 of SARS-CoV Urbani / Binding of serum 6 to linear peptides of protein X4 of SARS-CoV Urbani / Binding of serum 37 to linear peptides of protein X4 of SARS-CoV Urbani / Binding of serum 37 to looped/cyclic peptides of protein X4 of SARS-CoV Urbani / Binding of serum 6 to linear peptides of protein X5 of SARS-CoV Urbani / Binding of serum 37 to linear peptides of protein X5 of SARS-CoV Urbani / Binding of serum 37 to looped/cyclic peptides of protein X5 of SARS-CoV Urbani / Binding of serum 6 to linear peptides of protein N of SARS-CoV Urbani / Binding of serum 37 to linear peptides of protein N of SARS-CoV Urbani / Binding of serum 6 to linear peptide (PEPSCAN-ELISA) / Binding of serum 1a to looped/cyclic peptides of protein N of SARS-CoV Urbani / Binding of serum 1b to looped/cyclic peptides of protein N of SARS-CoV Urbani / Binding of serum 2 to looped/cyclic peptides of protein N of SARS-CoV Urbani / Binding of serum 6 to looped/cyclic peptides of protein N of SARS-CoV Urbani / Binding of serum 37 to looped/cyclic peptides of protein N of SARS-CoV Urbani / Binding of serum 62 to looped/cyclic peptides of protein N of SARS-CoV Urbani / Binding of serum London to looped/cyclic peptides of protein N of SARS-CoV Urbani / Binding of serum SARS-green to looped/cyclic peptides of protein N of SARS-CoV Urbani: unit not given here"}}}
{"sequence": "TDTIVVTEGDGISTP", "values": [{"measurement": "Binding of a rabbit serum to linear peptides", "setting": "[1]", "result": 0.1}, {"measurement": "Binding of a rabbit serum to looped peptides", "setting": "[1]", "result": 0.3}, {"measurement": "Binding of Control Serum Blood-Bank to Looped peptides", "setting": "[2]", "result": 0.4}, {"measurement": "Binding of Control serum Blood-bank to linear peptides", "setting": "[2]", "result": 0.5}, {"measurement": "Binding of Control serum LUMC to linear peptides", "setting": "[2]", "result": 0.5}, {"measurement": "Binding of Control serum LUMC to looped peptides", "setting": "[2]", "result": 0.4}, {"measurement": "Binding of serum 1a to linear peptides of protein X1 of SARS-CoV Urbani", "setting": "[3]", "result": 0.6}, {"measurement": "Binding of serum 1a to looped/cyclic peptides of protein X1 of SARS-CoV Urbani", "setting": "[3]", "result": 0.4}, {"measurement": "Binding of serum 1b to linear peptides of protein X1 of SARS-CoV Urbani", "setting": "[3]", "result": 0.5}, {"measurement": "Binding of serum 1b to looped/cyclic peptides of protein X1 of SARS-CoV Urbani", "setting": "[3]", "result": 0.3}, {"measurement": "Binding of serum 2 to linear peptides of protein X1 of SARS-CoV Urbani", "setting": "[3]", "result": 0.4}, {"measurement": "Binding of serum 2 to looped/cyclic peptides of protein X1 of SARS-CoV Urbani", "setting": "[3]", "result": 0.2}, {"measurement": "Binding of serum 6 to linear peptides of protein X1 of SARS-CoV Urbani", "setting": "[3]", "result": 0.5}, {"measurement": "Binding of serum 6 to looped/cyclic peptides of protein X1 of SARS-CoV Urbani", "setting": "[3]", "result": 0.2}, {"measurement": "Binding of serum 37 to linear peptides of protein X1 of SARS-CoV Urbani", "setting": "[3]", "result": 0.5}, {"measurement": "Binding of serum 37 to looped/cyclic peptides of protein X1 of SARS-CoV Urbani", "setting": "[3]", "result": 0.3}, {"measurement": "Binding of serum 62 to linear peptides of protein X1 of SARS-CoV Urbani", "setting": "[3]", "result": 0.4}, {"measurement": "Binding of serum 62 to looped/cyclic peptides of protein X1 of SARS-CoV Urbani", "setting": "[3]", "result": 0.3}, {"measurement": "Binding of serum London to linear peptides of protein X1 of SARS-CoV Urbani", "setting": "[3]", "result": 0.2}, {"measurement": "Binding of serum London to looped/cyclic peptides of protein X1 of SARS-CoV Urbani", "setting": "[3]", "result": 0.1}, {"measurement": "Binding of serum SARS-green to linear peptides of protein X1 of SARS-CoV Urbani", "setting": "[3]", "result": 0.3}, {"measurement": "Binding of serum SARS-green to looped/cyclic peptides of protein X1 of SARS-CoV Urbani", "setting": "[3]", "result": 0.2}, {"measurement": "Binding of serum SARS-yellow to linear peptides of protein X1 of SARS-CoV Urbani", "setting": "[3]", "result": 0.2}, {"measurement": "Binding of serum SARS-yellow to looped/cyclic peptides of protein X1 of SARS-CoV Urbani", "setting": "[3]", "result": 0.4}]}
{"sequence": "VAFLAVFQSATKIIA", "values": [{"measurement": "Binding of a rabbit serum to linear peptides", "setting": "[1]", "result": 0.2}, {"measurement": "Binding of a rabbit serum to looped peptides", "setting": "[1]", "result": 0.6}, {"measurement": "Binding of Control Serum Blood-Bank to Looped peptides", "setting": "[2]", "result": 0.7}, {"measurement": "Binding of Control serum Blood-bank to linear peptides", "setting": "[2]", "result": 0.6}, {"measurement": "Binding of Control serum LUMC to linear peptides", "setting": "[2]", "result": 0.5}, {"measurement": "Binding of Control serum LUMC to looped peptides", "setting": "[2]", "result": 0.7}, {"measurement": "Binding of serum 1a to linear peptides of protein X1 of SARS-CoV Urbani", "setting": "[3]", "result": 0.6}, {"measurement": "Binding of serum 1a to looped/cyclic peptide (PEPSCAN-ELISA)", "setting": "[3]", "result": 0.6}, {"measurement": "Binding of serum 1b to linear peptides of protein X1 of SARS-CoV Urbani", "setting": "[3]", "result": 0.5}, {"measurement": "Binding of serum 1b to looped/cyclic peptide (PEPSCAN-ELISA)", "setting": "[3]", "result": 0.4}, {"measurement": "Binding of serum 2 to linear peptides of protein X1 of SARS-CoV Urbani", "setting": "[3]", "result": 0.5}, {"measurement": "Binding of serum 2 to looped/cyclic peptide (PEPSCAN-ELISA)", "setting": "[3]", "result": 0.6}, {"measurement": "Binding of serum 6 to linear peptides of protein X1 of SARS-CoV Urbani", "setting": "[3]", "result": 0.7}, {"measurement": "Binding of serum 6 to looped/cyclic peptide (PEPSCAN-ELISA)", "setting": "[3]", "result": 0.7}, {"measurement": "Binding of serum 37 to linear peptides of protein X1 of SARS-CoV Urbani", "setting": "[3]", "result": 0.6}, {"measurement": "Binding of serum 37 to looped/cyclic peptide (PEPSCAN-ELISA)", "setting": "[3]", "result": 0.6}, {"measurement": "Binding of serum 62 to linear peptides of protein X1 of SARS-CoV Urbani", "setting": "[3]", "result": 0.6}, {"measurement": "Binding of serum 62 to looped/cyclic peptide (PEPSCAN-ELISA)", "setting": "[3]", "result": 0.6}, {"measurement": "Binding of serum London to linear peptides of protein X1 of SARS-CoV Urbani", "setting": "[3]", "result": 0.2}, {"measurement": "Binding of serum London to looped/cyclic peptide (PEPSCAN-ELISA)", "setting": "[3]", "result": 0.7}, {"measurement": "Binding of serum SARS-green to linear peptides of protein X1 of SARS-CoV Urbani", "setting": "[3]", "result": 0.2}, {"measurement": "Binding of serum SARS-green to looped/cyclic peptide (PEPSCAN-ELISA)", "setting": "[3]", "result": 0.4}, {"measurement": "Binding of serum SARS-yellow to linear peptides of protein X1 of SARS-CoV Urbani", "setting": "[3]", "result": 0.4}, {"measurement": "Binding of serum SARS-yellow to looped/cyclic peptide (PEPSCAN-ELISA)", "setting": "[3]", "result": 0.5}]}
{"sequence": "KYTQSTALQELLIQQ", "values": [{"measurement": "Binding of a rabbit serum to linear peptides", "setting": "[1]", "result": 0.4}, {"measurement": "Binding of a rabbit serum to looped peptides", "setting": "[1]", "result": 0.4}, {"measurement": "Binding of Control Serum Blood-Bank to Looped peptides", "setting": "[2]", "result": 0.9}, {"measurement": "Binding of Control serum Blood-bank to linear peptides", "setting": "[2]", "result": 0.6}, {"measurement": "Binding of Control serum LUMC to linear peptides", "setting": "[2]", "result": 0.5}, {"measurement": "Binding of Control serum LUMC to looped peptides", "setting": "[2]", "result": 1.0}, {"measurement": "Binding of serum 1a to linear peptides of protein X2", "setting": "[3]", "result": 0.7}, {"measurement": "Binding of serum 1a to looped/cyclic peptides of protein X2 of SARS-CoV Urbani", "setting": "[3]", "result": 0.8}, {"measurement": "Binding of serum 1b to linear peptides of protein X2", "setting": "[3]", "result": 0.6}, {"measurement": "Binding of serum 1b to looped/cyclic peptides of protein X2 of SARS-CoV Urbani", "setting": "[3]", "result": 1.0}, {"measurement": "Binding of serum 2 to linear peptides of protein X2", "setting": "[3]", "result": 0.4}, {"measurement": "Binding of serum 2 to looped/cyclic peptides of protein X2 of SARS-CoV Urbani", "setting": "[3]", "result": 0.7}, {"measurement": "Binding of serum 6 to linear peptides of protein X2", "setting": "[3]", "result": 0.5}, {"measurement": "Binding of serum 6 to looped/cyclic peptides of protein X2 of SARS-CoV Urbani", "setting": "[3]", "result": 0.7}, {"measurement": "Binding of serum 37 to linear peptides of protein X2", "setting": "[3]", "result": 0.6}, {"measurement": "Binding of serum 37 to looped/cyclic peptides of protein X2 of SARS-CoV Urbani", "setting": "[3]", "result": 0.8}, {"measurement": "Binding of serum 62 to linear peptides of protein X2", "setting": "[3]", "result": 0.6}, {"measurement": "Binding of serum 62 to looped/cyclic peptides of protein X2 of SARS-CoV Urbani", "setting": "[3]", "result": 1.0}, {"measurement": "Binding of serum London to linear peptides of protein X2", "setting": "[3]", "result": 0.5}, {"measurement": "Binding of serum London to looped/cyclic peptides of protein X2 of SARS-CoV Urbani", "setting": "[3]", "result": 0.5}, {"measurement": "Binding of serum SARS-green to linear peptides of protein X2", "setting": "[3]", "result": 0.6}, {"measurement": "Binding of serum SARS-green to looped/cyclic peptides of protein X2 of SARS-CoV Urbani", "setting": "[3]", "result": 0.9}, {"measurement": "Binding of serum SARS-yellow to linear peptides of protein X2", "setting": "[3]", "result": 0.6}, {"measurement": "Binding of serum SARS-yellow to looped/cyclic peptides of protein X2 of SARS-CoV Urbani", "setting": "[3]", "result": 0.8}]}
